Results: ChEMBL document CHEMBL3352781, “Synthesis, antileishmanial and antitrypanosomal activities of N-substituted tetrahydro-β-carbolines” (Bioorg Med Chem Lett, 2014)
pIC50: −log10 of the molar value. Activity calls are given as the source filed them. The calls are words filed in the database; no cut-off is given here.

What was measured:
[1] = system: Leishmania infantum; test: Antimicrobial activity against promastigote stage of Leishmania infantum; type: functional, organism-based
[2] = system: Leishmania infantum; test: Antimicrobial activity against amastigote stage of Leishmania infantum; type: functional, organism-based
[3] = system: Leishmania donovani; test: Antimicrobial activity against promastigote stage of Leishmania donovani after 72 hrs by Alamar Blue assay; type: functional, organism-based; conditions: for pIC50: read-out: IC50
[4] = system: Leishmania donovani; test: Antimicrobial activity against axenic amastigote stage of Leishmania donovani after 72 hrs by Alamar Blue assay; type: functional, organism-based; conditions: for pIC50: read-out: IC50
[5] = system: Trypanosoma brucei; test: Antimicrobial activity against trypamastigote stage of Trypanosoma brucei after 72 hrs by Alamar Blue assay; type: functional, organism-based; conditions: for pIC50: read-out: IC50
[6] = system: Trypanosoma brucei brucei; test: Antimicrobial activity against bloodstream form of Trypanosoma brucei brucei TC221; type: functional, organism-based
[7] = system: Leishmania donovani; test: Antimicrobial activity against promastigote stage of Leishmania donovani infected in human THP1 cells after 72 hrs by Alamar Blue assay; type: functional, organism-based; conditions: for IC90: THP-1; for IC50: thp-1
[8] = system: LLC-PK1; test: Cytotoxicity against pig LLC-PK1 cells after 48 hrs by neutral red assay; type: cell-based; conditions: Sus scrofa, LLC-PK1, 48 h
[9] = system: HepG2; test: Cytotoxicity against human HepG2 cells after 48 hrs by neutral red assay; type: cell-based; conditions: HepG2, 48 h
[10] = system: THP-1; test: Cytotoxicity against human THP1 cells up to 10 ug/ml after 48 hrs by neutral red assay; type: cell-based; conditions: thp-1, 48 h
[11] = system: LLC-PK1; test: Cytotoxicity against pig LLC-PK1 cells up to 25 ug/ml after 48 hrs by neutral red assay; type: cell-based, Sus scrofa; conditions: llc-pk1, 48 h
[12] = system: Vero; test: Cytotoxicity against African green monkey Vero cells up to 25 ug/ml after 48 hrs by neutral red assay; type: cell-based; conditions: chlorocebus sabaeus
[13] = system: HepG2; test: Cytotoxicity against human HepG2 cells up to 25 ug/ml after 48 hrs by neutral red assay; type: cell-based; conditions: hepg2, 48 h
[14] = system: Trypanosoma cruzi; test: Antimicrobial activity against epimastigote stage of Trypanosoma cruzi Y; type: functional, organism-based

| SMILES | pIC50 [1] | pIC50 [2] | pIC50 ([3]; Leishmania donovani, 72 h) | pIC50 ([4]; Leishmania donovani, 72 h) | pIC50 ([5]; Trypanosoma brucei, 72 h) | IC90 [7] | IC50 [7] | IC50 [5] | IC90 [5] | Activity [10] | IC90 ([3]; Leishmania donovani, 72 h) [µM] | IC90 ([4]; Leishmania donovani, 72 h) [µM] | Activity [11] | Activity [12] | Activity [13] | further results |
| --- | --- | --- | --- | --- | --- | --- | --- | --- | --- | --- | --- | --- | --- | --- | --- | --- |
| Cc1nccc2c1[nH]c1ccccc12 [HARMAN] | 4.72 | 6.57 | 4.72 | 6.57 | – | – | – | – | – | – | – | – | – | – | – | – |
| COc1ccc2c3c([nH]c2c1)C(C)=NCC3 [HARMALINE] | 3.93 | 5.94 | 3.93 | 5.94 | – | – | – | – | – | – | – | – | – | – | – | – |
| COc1ccc2c(c1)[nH]c1c(C)nccc12 [HARMINE] | 5.43 | 6.64 | 5.43 | 6.64 | 4.13 | – | – | – | – | – | – | – | – | – | – | pIC50 [6]: 4.13 |
| O=C(c1ccc([N+](=O)[O-])s1)N1CCc2c([nH]c3ccccc23)C1 | – | – | 4.90 | 4.20 | – | inactive | Not Active | Not Active | inactive | Non-toxic | 36.6 | 107 | – | – | – | pIC50 [8]: 4.25; pIC50 [9]: 4.20 |
| O=C(c1ccc(-c2ccc(-c3ccccc3)cc2)o1)N1CCc2c([nH]c3ccccc23)C1 | – | – | 4.12 | 4.08 | – | inactive | Not Active | Not Active | inactive | Non-toxic | 111 | 110 | Non-toxic | Non-toxic | Non-toxic | – |
| Cc1noc(C)c1CN1CCc2c([nH]c3ccccc23)C1 | – | – | – | – | 4.80 | inactive | Not Active | – | – | Non-toxic | – | – | Non-toxic | Non-toxic | Non-toxic | IC90 ([5]; Trypanosoma brucei, 72 h): 26.3 µM; IC50 [3]: Not Active; IC90 [3]: inactive; IC50 [4]: Not Active; IC90 [4]: inactive |
| O=C(c1ccc(-c2cc(C(F)(F)F)ccc2Cl)o1)N1CCc2c([nH]c3ccccc23)C1 | – | – | 4.40 | 4.43 | – | inactive | Not Active | Not Active | inactive | Non-toxic | 69.1 | 76 | – | – | – | pIC50 [9]: 4.59 |
| O=[N+]([O-])c1ccc(CN2CCc3c([nH]c4ccccc34)C2)o1 | – | – | 4.47 | 3.93 | 6.00 | inactive | Not Active | – | – | Non-toxic | – | – | Non-toxic | Non-toxic | Non-toxic | IC90 ([5]; Trypanosoma brucei, 72 h): 28.1 µM |
| CN1CCN(C(=O)c2cc3c4ccccc4n4c(=O)c5ccccc5c(n2)c34)CC1 | – | – | – | – | – | – | – | – | – | – | – | – | – | – | – | pIC50 [14]: 6.40 |
